Test results reported in US20230219934A1, “2,3-DISUBSTITUTED PYRIDO[3,4-B]PYRAZINE-CONTAINING COMPOUNDS AS KINASE INHIBITORS” (Purdue Research Foundation, priority 2020, published 2023).

Key:
[1] = test system: MiaPaCa-2; assay: MIA PaCa-2 pancreatic cancer cell growth inhibition (CellTitre Blue viability); format: cell-based; conditions: Homo sapiens, pancreatic cancer cell line, 72 hours
Experimental: Cell Culture: MIA PaCa-2 cells were cultured in RPMI media supplemented with 10% fetal bovine serum, 1% GlutaMax Supplement (GIBCO™), 1% Penicillin-Streptomycin (GIBCO™). Cells were seeded in a 96-well plate at 1.1×10^4 cells/mL. Cells were incubated at […] for 24 hours after which plates were treated in triplicates with 10 uL of compound (0.6 μM in DMSO) that was further diluted in the same media (5 μL of compound into 145 μL of media). For IC50 compounds were tested at 9 different concentrations, initial concentration of 0.6 μM in DMSO and subsequently diluted by a third for the other 8 concentrations. This was incubated at […] for 72 hours after which 10 uL of The CellTitre Blue Cell Viability Assay (Promega, Madison Wis.) was added to each well and incubated at […] for 3 hours. Plates were read on a CYTATION™ 5 Cell Imaging Multi-Mode Reader (BioTek). Appropriate controls were used. Graphed using GraphPadPrism 5.0 Software.

[2] = test system: cell lines harboring RET solvent front mutations; assay: Inhibition of selpercatinib and pralsetinib-resistant cell lines; format: cell-based
[3] = test system: cell line harboring RET G810R; assay: Inhibition of cell line harboring RET G810R; format: cell-based; conditions: under similar conditions
[4] = Oral bioavailability; conditions: in vivo
[5] = Tolerability in mice; format: in vivo
[6] = test system: tumor harboring solvent front RET810 mutation; assay: Growth of tumor harboring solvent front RET810 mutation; format: in vivo, mice; conditions: HSL476 at 25 mg/Kg (daily)
[7] = test system: K562 cell line (leukemia); assay: NCI-60 GI50 determination, K562; format: cell-based; conditions: Homo sapiens, NCI Developmental Therapeutics Program in-vitro testing, 48 h
Experimental: (§1) According to the National Cancer Institute, Bethesda, Md. (the protocol of the Drug Evaluation Branch), the effects of compounds are measured as follows: Cell suspensions are diluted to a target cell density of 5000-40,000 cells per well (based on cell growth characteristics) in a 96-well microtiter plates. The test compounds were evaluated at five concentrations (10-fold dilutions) with the highest concentration being 100 μM. The incubation period was 48 h under 5% carbon dioxide atmosphere and 100% humidity. A sulforhodamine B assay was used to assay the cells. Optical densities of the wells were read by a plate reader the optical densities were processed into GI50 (the concentration that causes 50% growth inhibition).
(§2) The NCI renamed the IC50 value, the concentration of compound that causes 50% growth inhibition, as follows.
(§3) GI50=100×(T−T0)/(C−T0)=50, where T=the optical density of the test well after a 48-h period of exposure to test drug, T0=the optical density at time zero, C=the control optical density. The control is the well not treated with test agent (https://dtp.cancer.gov/databases_tools/docs/compare/compare_methodology.htm).

[8] = test system: EKVX (NSCLC); assay: NCI-60 GI50 determination, EKVX; format: cell-based; conditions: Homo sapiens, NCI Developmental Therapeutics Program in-vitro testing, 48 h
Experimental: as §1, §2, §3

[9] = test system: KM12 (colon and driven by TrkA kinase); assay: NCI-60 GI50 determination, KM12; format: cell-based; conditions: Homo sapiens, NCI Developmental Therapeutics Program in-vitro testing, 48 h
Experimental: as §1, §2, §3

[10] = test system: some lung and colon cancers; assay: NCI-60 potency comparison on lung and colon cancers; format: cell-based; conditions: more potently than HSL212
Experimental: as §1, §2, §3

Compound | IC50 [3] [nM] | Effect on growth of tumor harboring solvent front RET810 mutation [6] | GI50 [7] [nM] | GI50 [8] [nM] | GI50 [9] [nM] | other results
Cc1nc2cnc(N)c(C#Cc3cncc(C(=O)Nc4ccc(CN5CCN(C)CC5)c(C(F)(F)F)c4)c3)c2nc1C [HSL476, 5-((7-amino-2,3-dimethylpyrido[3,4-b]pyrazin-8-yl)ethynyl)-N-(4-((4-methylpiperazin-1-yl)methyl)-3-(trifluoromethyl)phenyl)nicotinamide] | 18 | could reduce growth tumor | – | – | – | IC50 [1]: 25 nM; IC50 [2]: < 20 nM; Oral bioavailability [4]: orally bioavailable; Tolerability [5]: well tolerated
CO[C@]1(C(=O)N[C@@H](C)c2ccc(-n3cc(F)cn3)nc2)CC[C@H](c2nc(C)cc(Nc3cc(C)[nH]n3)n2)CC1 [pralsetinib] | 7320 | – | – | – | – | –
Cc1ccc(C(=O)Nc2ccc(CN3CCN(C)CC3)c(C(F)(F)F)c2)cc1C#Cc1cnc2cccnn12 [ponatinib] | 77 | – | – | – | – | –
COc1ccc(CN2C3CC2CN(c2ccc(-c4cc(OCC(C)(C)O)cn5ncc(C#N)c45)cn2)C3)cn1 [Selpercatinib, reference compound] | 2620 | ineffective | – | – | – | –
CN1CCN(Cc2ccc(NC(=O)c3cncc(C#Cc4cncc5nccnc45)c3)cc2C(F)(F)F)CC1 [HSL212, N-(4-((4-methylpiperazin-1-yl)methyl)-3-(trifluoromethyl)phenyl) (pyrido[3,4-b]pyrazin-8-ylethynyl)nicotinamide] | – | – | < 5 | > 50000 | 136 | –
Cc1nc2cncc(C#Cc3cncc(C(=O)Nc4ccc(CN5CCN(C)CC5)c(C(F)(F)F)c4)c3)c2nc1C [HSL211, 5-((2,3-dimethylpyrido[3,4-b]pyrazin-8-yl)ethynyl)-N-(4-((4-methylpiperazin-1-yl)methyl)-3-(trifluoromethyl)phenyl)nicotinamide] | – | – | < 5 | 484 | < 5 | Potency relative to HSL212 on some lung and colon cancers [10]: ~100 ×
